Our source for the IC50 values is patent US11267800B2, “Cyclohexyl acid triazole azines as LPA antagonists” (BRISTOL-MYERS SQUIBB COMPANY, priority 2017, dated 2022).

Structures are written as SMILES.

The target in the assay is T1, human LPA1 (Homo sapiens, UniProt Q92633).
T1 construct: expressed in transfected cells; host or cells: Chinese hamster ovary (CHO) cells
T1 sequence (Q92633 whole entry): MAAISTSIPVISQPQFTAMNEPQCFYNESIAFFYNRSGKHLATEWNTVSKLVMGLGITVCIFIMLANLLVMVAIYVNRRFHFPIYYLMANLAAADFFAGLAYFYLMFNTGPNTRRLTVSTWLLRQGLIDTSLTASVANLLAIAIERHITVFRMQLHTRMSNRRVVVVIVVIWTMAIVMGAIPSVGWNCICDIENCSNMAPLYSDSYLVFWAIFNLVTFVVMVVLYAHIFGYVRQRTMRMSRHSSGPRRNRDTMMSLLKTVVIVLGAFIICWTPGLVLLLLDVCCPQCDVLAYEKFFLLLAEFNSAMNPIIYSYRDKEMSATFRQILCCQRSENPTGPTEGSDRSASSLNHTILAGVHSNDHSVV
Nature of the assay: LPA1 functional antagonist assay (calcium flux). It is filed as cell-based. The settings on record: CHO cells overexpressing human LPA1; inhibition of calcium flux induced by 10 nM LPA; read-out: hLPA1 IC50. The procedure, abridged:
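IC50 values come from 4-parameter logistic fits and mark 50% block of the calcium flux evoked by 10 nM LPA. Human LPA1-overexpressing CHO cells were calcium-dye loaded at 37 °C, then given test compound (0.08 nM–5 μM, 0.5% DMSO, HEPES-buffered HBSS with 0.1% fatty-acid-free BSA) for 20 min at room temperature before agonist.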
As for `CCOc1nc(NCc2c(-c3ccc(O[C@H]4CCC[C@H](C(=O)O)C4)c(C)n3)nnn2C)nc(C2CC2)n1` [Example 202, (1S,3S)-3-((6-(5-(((4-Cyclopropyl-6-ethoxy-1,3,5-triazin-2-yl)amino)methyl)-1-methyl-1H-1,2,3-triazol-4-yl)-2-methylpyridin-3-yl)oxy) cyclohexane-1-carboxylic acid], the IC50 turned out to be 32 nM. The figure for `Cc1nc(-c2nnn(C)c2CNc2nccc(Oc3cccnc3)n2)ccc1O[C@H]1CCC[C@H](C(=O)O)C1` [Example 86] is 91 nM; for `CCCc1ccnc(NCc2c(-c3ccc(O[C@H]4CCC[C@H](C(=O)O)C4)c(C)n3)nnn2C)n1` [Example 7] it is 8 nM. The value for `CCc1nccc(OCc2c(-c3ccc(O[C@H]4CCC[C@H](C(=O)O)C4)c(C)n3)nnn2C)n1` [Example 306] was 36 nM; that for `Cc1nc(-c2nnn(C)c2CNc2ncc(F)c(NCC(F)(F)F)n2)ccc1O[C@H]1CCC[C@H](C(=O)O)C1` [Example 41] was 208 nM; that for `[2H]C([2H])([2H])C([2H])(Oc1ccnc(NCc2c(-c3ccc(O[C@H]4CCC[C@H](C(=O)O)C4)c(C)n3)nnn2C)n1)C([2H])([2H])[2H]` [Example 67] was 41 nM.

Regarding `Cc1nc(-c2nnn(C)c2Nc2cccc(C3CC3)n2)ccc1O[C@H]1CCC[C@H](C(=O)O)C1` [Example 231, (1S,3S)-3-((6-(5-((6-cyclopropyl-pyridin-2-yl)amino)-1-methyl-1H-1,2,3-triazol-4-yl)-2-methylpyridin-3-yl)oxy)cyclohexane-1-carboxylic acid], the IC50 was 21 nM. The figure for `Cc1nc(-c2nnn(C)c2CNc2nccc(Oc3c(F)cc(F)cc3F)n2)ccc1O[C@H]1CCC[C@H](C(=O)O)C1` [Example 100] is 85 nM; for `COc1ncnc(OCc2c(-c3ccc(O[C@H]4CCC[C@H](C(=O)O)C4)c(C)n3)nnn2C)c1C` [Example 291] it is 3280 nM. As to `CCc1cc(NCc2c(-c3ccc(O[C@H]4CCC[C@H](C(=O)O)C4)c(C)n3)nnn2C)ncn1` [Example 318], the IC50 is 159 nM. The value for `Cn1nnc(-c2ccc(O[C@H]3CCC[C@H](C(=O)O)C3)cn2)c1COc1cc(C(F)(F)F)ncn1` [Example 368] was 79 nM. Take `Cn1nnc(-c2ccc(O[C@H]3CCC[C@H](C(=O)O)C3)cn2)c1CNc1ccnc(OCC2(C)CC2)n1` [Example 403]: the IC50 turned out to be 2310 nM. The value for `Cc1nc(-c2nnn(C)c2CNc2nccc(C34CC(C3)C4)n2)ccc1O[C@H]1CCC[C@H](C(=O)O)C1` [Example 155] was 96 nM; that for `Cc1nc(-c2nnn(C)c2CNc2cc(C(F)F)ncn2)ccc1O[C@H]1CCC[C@H](C(=O)O)C1` [Example 365] was 117 nM; that for `Cc1nc(-c2nnn(C)c2CNc2nccc(C(C)(C)CO)n2)ccc1O[C@H]1CCC[C@H](C(=O)O)C1` [Example 128] was 855 nM. Take `CCCc1ncnc(NCCc2c(-c3ccc(O[C@H]4CCC[C@H](C(=O)O)C4)c(C)n3)nnn2C)n1` [Example 213, (1S,3S)-3-((2-Methyl-6-(1-methyl-5-(2-((4-propyl-1,3,5-triazin-2-yl)amino)ethyl)-1H-1,2,3-triazol-4-yl)pyridin-3-yl)oxy)cyclohexane-1-carboxylic acid]: the IC50 was 1260 nM.

Turning to `Cc1nc(-c2nnn(C)c2CNc2nccc(OCC(C)C)n2)ccc1O[C@H]1CCC[C@H](C(=O)O)C1` [Example 93], the IC50 came to 23 nM. The value for `CCCOc1ccnc(Nc2c(-c3ccc(O[C@H]4CCC[C@H](C(=O)O)C4)c(C)n3)nnn2C)n1` [Example 239, (1S,3S)-3-((2-methyl-6-(1-methyl-5-((4-propoxypyrimidin-2-yl)amino)-1H-1,2,3-triazol-4-yl)pyridin-3-yl)oxy) cyclohexane-1-carboxylic acid] was 50 nM. Take `Cc1nc(-c2nnn(C)c2COc2nccc(C(C)(C)C)n2)ccc1O[C@H]1CCC[C@H](C(=O)O)C1` [Example 332]: the IC50 worked out at 29 nM. The value for `CC(C)c1ccnc(NCc2c(-c3ccc(O[C@H]4CCC[C@H](C(=O)O)C4)cn3)nnn2C)n1` [Example 35] was 28 nM. On to `COCc1cc(OCc2c(-c3ccc(O[C@H]4CCC[C@H](C(=O)O)C4)c(C)n3)nnn2C)ncn1` [Example 299], for which the IC50 turned out to be 67 nM. The figure for `CCC1(c2ccnc(NCc3c(-c4ccc(O[C@H]5CCC[C@H](C(=O)O)C5)c(C)n4)nnn3C)n2)CC1` [Example 148] is 70 nM; for `Cc1nc(-c2nnn(C)c2CNc2ccnc(OCC(F)F)n2)ccc1O[C@H]1CCC[C@H](C(=O)O)C1` [Example 73] it is 133 nM; for `Cc1nc(-c2nnn(C)c2COc2nccc(N(C)C)n2)ccc1O[C@H]1CCC[C@H](C(=O)O)C1` [Example 343] it is 100 nM. As to `CCC(C)c1ccnc(NCc2c(-c3ccc(O[C@H]4CCC[C@H](C(=O)O)C4)c(C)n3)nnn2C)n1` (stereo partly shown) [Example 159], the IC50 came out at 21 nM.

Turning to `Cc1nc(-c2nnn(C)c2COc2cc(OC(F)F)ncn2)ccc1O[C@H]1CCC[C@H](C(=O)O)C1` [Example 255, (1S,3S)-3-((6-(5-(((6-(difluoromethoxy)pyrimidin-4-yl)oxy)methyl)-1-methyl-1H-1,2,3-triazol-4-yl)-2-methylpyridin-3-yl)oxy)cyclohexane-1-carboxylicacid], the IC50 was determined as 12.9 nM.

Consider `Cc1nc(-c2nnn(C)c2CNc2cc(OCC(C)C)ncn2)ccc1O[C@H]1CCC[C@H](C(=O)O)C1` [Example 329, (1S,3S)-3-((6-(5-(((6-Isobutoxypyrimidin-4-yl)amino)methyl)-1-methyl-1H-1,2,3-triazol-4-yl)-2-methylpyridin-3-yl)oxy)cyclohexane-1-carboxylicacid], for which the IC50 stood at 82 nM. As for `Cc1nc(-c2nnn(C)c2COc2cc(OC3CC3)ncn2)ccc1O[C@H]1CCC[C@H](C(=O)O)C1` [Example 274], the IC50 was found to be 26 nM.

Turning to `Cc1nc(-c2nnn(C)c2CNc2nccc(-c3ccccn3)n2)ccc1O[C@H]1CCC[C@H](C(=O)O)C1` [Example 21], the IC50 was determined as 101 nM.

Regarding `Cc1nc(-c2nnn(C)c2CNc2nccc(Oc3ccc(F)cc3F)n2)ccc1O[C@H]1CCC[C@H](C(=O)O)C1` [Example 116], the IC50 amounted to 14 nM. The value for `Cc1nc(-c2nnn(C)c2COc2cc(-c3ccccn3)ncn2)ccc1O[C@H]1CCC[C@H](C(=O)O)C1` [Example 355] was 144 nM; that for `CCOCCOc1cc(OCc2c(-c3ccc(O[C@H]4CCC[C@H](C(=O)O)C4)c(C)n3)nnn2C)ncn1` [Example 362] was 96 nM.

In the case of `Cc1nc(-c2nnn(C)c2COc2ccnc(C(F)F)c2)ccc1O[C@H]1CCC[C@H](C(=O)O)C1` [Example 308], the IC50 turned out to be 60 nM. As to `Cc1nc(-c2nnn(C)c2COc2cc(NC3CC3)ncn2)ccc1O[C@H]1CCC[C@H](C(=O)O)C1` [Example 303], the IC50 was determined as 64 nM. The value for `Cc1nc(-c2nnn(C)c2CNc2nccc(C(C)C)n2)cnc1O[C@H]1CCC[C@H](C(=O)O)C1` [Example 135] was 296 nM. The value for `COCCCOc1cc(OCc2c(-c3ccc(O[C@H]4CCC[C@H](C(=O)O)C4)c(C)n3)nnn2C)ncn1` [Example 285] was 61 nM. As to `Cc1nc(-c2nnn(C)c2CNc2ncnc(C3CCCC3)n2)ccc1O[C@H]1CCC[C@H](C(=O)O)C1` [Example 184], the IC50 was found to be 90 nM.
